The source made the active and inactive calls. No cut-off for these calls is given here.
Experiments:
HT-1080 [1] = experiment: Toxicity against human HT1080 cells assessed as cell viability after 24 hrs by MTT assay; assay type: cell-based; conditions: ht-1080, 24 h
HT-1080 [2] = experiment: Inhibition of MMP9 expression in human HT1080 cells; assay type: functional, cell-based
HT-1080 [3] = experiment: Inhibition of MMP2 expression in human HT1080 cells; assay type: functional, cell-based
HT-1080 [4] = experiment: Inhibition of NF-kappaB promoter activity in human HT1080 cells; assay type: functional, cell-based
HT-1080 [5] = experiment: Inhibition of PMA-stimulated activator protein-1 promotor activity in human HT1080 cells; assay type: functional, cell-based
MRC5 = experiment: Toxicity against human MRC5 cells assessed as cell viability after 24 hrs by MTT assay; assay type: cell-based; conditions: mrc5, 24 h

In the case of `N[C@@H](C=O)[C@@H](O)[C@H](O)[C@H](O)COS(=O)(=O)O`, the Activity (HT-1080 [1]) is reported as “Active”, the Activity (HT-1080 [2]) is reported as “Dose-dependent effect” and the Activity (HT-1080 [3]) is reported as “Dose-dependent effect”. For the same compound, the Activity (HT-1080 [4]) was “Dose-dependent effect”, the Activity (HT-1080 [5]) was “inactive” and the Activity (MRC5) was “Active”.

From ChEMBL document CHEMBL1143685, “Sulfated glucosamine inhibits MMP-2 and MMP-9 expressions in human fibrosarcoma cells” (Bioorg Med Chem, 2007)
